Measured values from patent US11384066B1, “Heterocyclic compounds useful as aurora a selective inhibitors” (Jacobio Pharmaceuticals Co., Ltd., priority 2020, dated 2022).

What was measured:
NCI-H2171 cells = experiment: Cell proliferation assay (CellTiter-Glo), NCI-H2171; assay type: cell-based; settings: Homo sapiens, NCI-H2171, 120 h, 5 days
Description: (§1) Example B: Cell Proliferation Assay
(§2) NCI-H2171 and NCI-H446 cell proliferation analysis were conducted by CellTiter-Glo (Promega, Cat #G1111). The cells will be harvested respectively during the logarithmic growth period and counted with hemocytometer. […] Adjust NCI-H2171 and NCI-H446 cells concentrations to 1.0×10^5 cells/mL with complete medium (RPMI-1640 medium supplemented with 10% (v/v) fetal bovine serum). 100 μL/cell suspensions were added to 96-well plates, and the final cell densities were 1.0×10^4 cells/well. The plate will be cultured overnight in 5% CO2 and 95% humidity at 37° C. The next day, the test compound was dissolved in DMSO as stock solution. Then the different concentrations of compound were added into 96-well plates. The plates will be cultured for 5 days, then measured by means of CellTiter-Glo assay. 50 μL/cell CellTiter-Glo reagent was added into 96-well plates. Shock incubation for 5 min and then stand incubation for 10 min at room temperature. Record the Luminosity values using an microplate spectrophotometer (Spark, Tecan). Fit the data using GraphPad 8.0 and obtain IC50 values.
(§3) Formula: Survival (%)=(Lumtest−Lummedia control)/(Lumcell control−Lummedia control)×100%

NCI-H446 cells = experiment: Cell proliferation assay (CellTiter-Glo), NCI-H446; assay type: cell-based; settings: Homo sapiens, NCI-H446, 120 h, 5 days
Description: as §1, §2, §3

PK in rat = assay type: in vivo; settings: SD male rats
Description: The compounds were dissolved into 10% DMSO, 30% PEG400, and 60% saline to obtain a solution. SD male rats were given the compound orally and intravenously. Then plasma samples were collected at 0 hour (pre-dose), 0.25, 0.5, 1, 2, 4, 7, 24 hours post-dose. Plasma drug concentration was detected by LC-MS/MS. Pharmacokinetic parameters were calculated using WinNonlin's software with non-compartmental model.

Aurora B = Aurora B (Homo sapiens (Human), UniProt Q96GD4); experiment: Aurora B kinase assay (mobility shift assay); assay type: biochemical; settings: ratio of Aurora B IC50 to Aurora A IC50
Description: (§4) Example A: Evaluation of Aurora a and Aurora B Inhibitory Effect—Kinase Assay
(§5) The inhibitory activities of a test compound against Aurora A and Aurora B were measured according to the following method.
(§6) The IC50 value of Aurora A and Aurora B kinase was performed by Sundia MediTech Co. Ltd. using Mobility shift assay.
(§7) • (1) Prepare a 1× kinase buffer [50 mM 4-(2-hydroxyethyl)-1-piperazineethanesulfonic acid (HEPES), PH 7.5, 0.01% Brij-35, 10 mM MgCl2, 2 mM dithiothreitol (DTT)]. • (2) Prepare compound:
(§8) The testing compound was dissolved with DMSO. The testing compound was diluted up to 100× final concentration in a 384-well plate. Transfer 250 nL of the compound dilution to a 384-well assay plate using Echo 550. 100% DMSO of 250 nL was added to the negative control well and the positive control well. • (3) Prepare a 2.5× enzyme solution using the above 1× kinase buffer. • (4) Add 10 μL of the 2.5× enzyme solution to the compound well and the positive control well of the 384-well assay plate. Add 10 μL of the 1× kinase buffer to the negative control well. • (5) The 384-well plate was centrifuged at 1000 rpm for 30 seconds and incubated at room temperature for 10 min. • (6) A mixture of ATP and Kinase substrate 21 with a final concentration of 25/15× was prepared by the 1× kinase buffer. • (7) Add 15 μL of the mixture of 25/15×ATP and kinase substrate solution 21 to start reaction. • (8) The 384-well plate was centrifuged at 1000 rpm for 30 seconds and incubated at room temperature. • (9) 30 μL of the stop and detection buffer was added to stop the kinase reaction and centrifuged at 1000 rpm for 30 seconds. • (10) Collect data on Caliper EZ ReaderII. Data Analysis:
(§9) Conversion %_sample is conversion rate data of samples. Conversion %_min is mean value of negative control (conversion rate data without enzyme activation). Conversion %_max is mean positive control (conversion rate data without compound).
(§10) The log of concentration is on the X axis, and the percentage inhibition is on the Y axis. Fit the Quantitative effect curves with log (inhibitor) vs. response—Variable slope in GraphPad Prism5 obtain IC50 values. Equation used is Y=Bottom+(Top−Bottom)/(1+10^((Log IC50−X)*HillSlope)).

Aurora A = Aurora A (Homo sapiens (Human), UniProt O14965); experiment: Aurora A kinase assay (mobility shift assay); assay type: biochemical
Description: as §4, §5, §6, §7, §8, §9, §10

Aurora B, sequence (Q96GD4 whole entry): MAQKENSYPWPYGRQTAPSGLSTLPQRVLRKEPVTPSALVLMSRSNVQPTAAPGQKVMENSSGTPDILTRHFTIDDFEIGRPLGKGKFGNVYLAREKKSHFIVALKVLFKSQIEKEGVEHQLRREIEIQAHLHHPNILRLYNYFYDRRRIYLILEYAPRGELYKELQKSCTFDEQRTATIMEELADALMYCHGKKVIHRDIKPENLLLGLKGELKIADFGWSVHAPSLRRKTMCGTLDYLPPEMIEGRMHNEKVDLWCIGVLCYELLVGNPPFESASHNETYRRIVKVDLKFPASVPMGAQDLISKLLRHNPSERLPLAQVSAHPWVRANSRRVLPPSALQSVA
Aurora A, sequence (O14965 whole entry): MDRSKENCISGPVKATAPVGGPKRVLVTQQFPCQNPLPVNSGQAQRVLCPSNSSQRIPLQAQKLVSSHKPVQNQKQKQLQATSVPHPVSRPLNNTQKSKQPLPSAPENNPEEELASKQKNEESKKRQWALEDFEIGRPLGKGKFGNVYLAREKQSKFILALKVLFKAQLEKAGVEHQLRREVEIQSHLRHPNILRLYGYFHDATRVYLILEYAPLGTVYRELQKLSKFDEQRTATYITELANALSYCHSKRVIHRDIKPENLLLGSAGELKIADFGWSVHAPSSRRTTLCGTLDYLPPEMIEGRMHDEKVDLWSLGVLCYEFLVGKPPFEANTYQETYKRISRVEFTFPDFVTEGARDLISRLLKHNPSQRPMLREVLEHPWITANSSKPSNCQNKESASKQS

| SMILES | IC50 (NCI-H2171 cells) [nM] | IC50 (NCI-H446 cells) [nM] | IC50 Ratio Aur B/Aur A (Aurora B) | IC50 (Aurora A) [nM] | also measured |
| --- | --- | --- | --- | --- | --- |
| CC(=O)c1cc(Nc2cc(C)[nH]n2)nc(CC2(C(=O)O)CCN(Cc3cccc(Cl)c3F)CC2)c1F [Example 69, 4-((4-acetyl-3-fluoro-6-((5-methyl-1H-pyrazol-3-yl)-amino)pyridin-2-yl)methyl)-1-(3-chloro-2-fluorobenzyl)-piperidine-4-carboxylic acid] | 41 | 87 | – | – | – |
| Cc1cc(Nc2ccc(F)c(C[C@@]3(C(=O)O)CCN(Cc4cccc(Cl)c4F)[C@H](C)C3)n2)n[nH]1 [LY3295668, reference compound] | – | – | – | – | CL (PK in rat; IV: 3 mg/kg): 1.52 mL/min/kg; Vss (PK in rat; IV: 3 mg/kg): 0.29 L/kg; AUClast (PK in rat; PO: 10 mg/kg): 91211 ng·h/mL; Cmax (PK in rat; PO: 10 mg/kg): 15033 ng/mL; t1/2 (PK in rat; PO: 10 mg/kg): 3.37 h; F% (PK in rat; PO: 10 mg/kg vs IV: 3 mg/kg): 81% |
| Cc1cc(Nc2cc(F)cc(C[C@@]3(C(=O)O)CCN(Cc4cccc(Cl)c4F)[C@H](C)C3)n2)n[nH]1 [Example 30, (2R,4R)-1-(3-chloro-2-fluorobenzyl)-4-((4-fluoro-6-((5-methyl-1H-pyrazol-3-yl)amino)pyridin-2-yl)methyl)-2-methylpiperidine-4-carboxylic acid] | 62 | 128 | – | – | – |
| CCc1cc(Nc2cc(C)[nH]n2)nc(CC2(C(=O)O)CCN(Cc3cccc(Cl)c3F)CC2)c1F [Example 66, 1-(3-chloro-2-fluorobenzyl)-4-((4-ethyl-3-fluoro-6-((5-methyl-1H-pyrazol-3-yl)amino)-pyridin-2-yl)methyl)piperidine-4-carboxylic acid] | – | – | 716 | 0.57 | – |
| Cc1cc(Nc2cc(C)c(F)c(CC3(C(=O)O)CCN(Cc4cccc(Cl)c4Cl)CC3)n2)n[nH]1 [Example 54] | – | – | 2041 | 0.43 | – |
| Cc1cc(Nc2nc(C[C@@]3(C(=O)O)CCN(Cc4cccc(Cl)c4F)[C@H](C)C3)c(F)cc2F)n[nH]1 [Example 91, (2R,4R)-1-(3-chloro-2-fluorobenzyl)-4-((3,5-difluoro-6-((5-methyl-1H-pyrazol-3-yl)amino)pyridin-2-yl)methyl)-2-methylpiperidine-4-carboxylic acid] | – | – | 451 | 1.1 | – |
| Cc1cc(Nc2cncc(C[C@@]3(C(=O)O)CCN(Cc4cccc(Cl)c4F)[C@H](C)C3)n2)n[nH]1 (stereo in doubt) [Example 45, (2R,4R)-1-(3-chloro-2-fluorobenzyl)-2-methyl-4-((6-((5-methyl-1H-pyrazol-3-yl)amino)pyrazin-2-yl)methyl)piperidine-4-carboxylic acid] | – | – | 523 | 0.88 | – |
| Cc1cc(Nc2cc(C)c(F)c(C[C@@]3(C(=O)O)CCN(Cc4cccc(Cl)c4Cl)[C@H](C)C3)n2)n[nH]1 [Example 53, (2R,4R)-1-(2,3-dichloro-benzyl)-4-((3-fluoro-4-methyl-6-((5-methyl-1H-pyrazol-3-yl)-amino)pyridin-2-yl)methyl)-2-methylpiperidine-4-carboxylic acid] | 57 | 154 | 562 | 0.55 | – |
| Cc1cc(Nc2ccc(F)c(C[C@@]3(C(=O)O)CCN([C@@H](C)c4cccc(Cl)c4F)[C@H](C)C3)n2)n[nH]1 [Example 41, (2R,4R)-1-(1-(3-chloro-2-fluorophenyl)ethyl)-4-((3-fluoro-6-((5-methyl-1H-pyrazol-3-yl)amino)pyridin-2-yl)methyl)-2-methylpiperidine-4-carboxylic acid] | – | – | 3682 | 2.7 | – |
| CC[C@@H]1C[C@](Cc2nc(Nc3cc(C)[nH]n3)ccc2F)(C(=O)O)CCN1Cc1cccc(Cl)c1F [Example 8, (2R,4R)-1-(3-chloro-2-fluorobenzyl)-2-ethyl-4-((3-fluoro-6-((5-methyl-1H-pyrazol-3-yl)amino)pyridin-2-yl)methyl) piperidine-4-carboxylic acid] | 75 | 119 | 1288 | 1.2 | – |
| Cc1cc(Nc2ccc(C)c(C[C@@]3(C(=O)O)CCN(Cc4cccc(Cl)c4F)[C@H](C)C3)n2)n[nH]1 [Example 10, (2R,4R)-1-(3-chloro-2-fluorobenzyl)-2-methyl-4-((3-methyl-6-((5-methyl-1H-pyrazol-3-yl)amino)pyridin-2-yl)methyl) piperidine-4-carboxylic acid] | – | – | 979 | 1 | – |
| Cc1cc(Nc2cccc(C[C@@]3(C(=O)O)CCN(Cc4cccc(Cl)c4F)[C@H](C)C3)n2)n[nH]1 [Example 29, (2R,4R)-1-(3-chloro-2-fluorobenzyl)-2-methyl-4-((6-((5-methyl-1H-pyrazol-3-yl)amino)pyridin-2-yl)methyl)piperidine-4-carboxylic acid] | – | – | 586 | 1.4 | – |
| Cc1cc(Nc2nc(C[C@@]3(C(=O)O)CCN(Cc4cccc(Cl)c4F)[C@H](C)C3)c(F)cc2C)[nH]n1 [Example 35, (2R,4R)-1-(3-chloro-2-fluorobenzyl)-4-((3-fluoro-5-methyl-6-((3-methyl-1H-pyrazol-5-yl)amino)pyridin-2-yl)methyl)-2-methylpiperidine-4-carboxylic acid] | – | – | 2403 | 1.9 | – |
| Cc1cc(Nc2cc(S(C)(=O)=O)c(F)c(C[C@@]3(C(=O)O)CCN(Cc4cccc(Cl)c4F)[C@H](C)C3)n2)n[nH]1 [Example 81, (2R,4R)-1-(3-chloro-2-fluorobenzyl)-4-((3-fluoro-6-((5-methyl-1H-pyrazol-3-yl)amino)-4-(methylsulfonyl)pyridin-2-yl)methyl)-2-methylpiperidine-4-carboxylic acid] | – | – | 1353 | 0.77 | – |
| Cc1cc(Nc2ccc(F)c(C[C@@]3(C(=O)O)CCN(Cc4cc(Cl)c(F)c(Cl)c4)[C@H](C)C3)n2)n[nH]1 [Example 23, (2R,4R)-1-(3,5-dichloro-4-fluorobenzyl)-4-((3-fluoro-6-((5-methyl-1H-pyrazol-3-yl)amino)pyridin-2-yl)methyl)-2-methylpiperidine-4-carboxylic acid] | – | – | 613 | 0.91 | – |
| Cc1cc(Nc2nc(C[C@@]3(C(=O)O)CCN(Cc4cccc(Cl)c4F)[C@H](C)C3)cc(Cl)c2F)n[nH]1 [Example 73, (2R,4R)-1-(3-chloro-2-fluorobenzyl)-4-((4-chloro-5-fluoro-6-((5-methyl-1H-pyrazol-3-yl)amino)pyridin-2-yl)methyl)-2-methylpiperidine-4-carboxylic acid] | 27 | 63 | 779 | 0.76 | – |
